In experiment [1] the target is vcCNT (Vibrio cholerae, UniProt Q9KPL5). The experiment can be described thus: biochemical. Format: binding. The conditions noted are these: for mAnisotropy: [pyrrolo-gemcitabine] 2.00 μM.
Experiment [2] concerns the target T1, hCNT3 (Homo sapiens, UniProt Q9HAS3).
T1 sequence (Q9HAS3 1-691): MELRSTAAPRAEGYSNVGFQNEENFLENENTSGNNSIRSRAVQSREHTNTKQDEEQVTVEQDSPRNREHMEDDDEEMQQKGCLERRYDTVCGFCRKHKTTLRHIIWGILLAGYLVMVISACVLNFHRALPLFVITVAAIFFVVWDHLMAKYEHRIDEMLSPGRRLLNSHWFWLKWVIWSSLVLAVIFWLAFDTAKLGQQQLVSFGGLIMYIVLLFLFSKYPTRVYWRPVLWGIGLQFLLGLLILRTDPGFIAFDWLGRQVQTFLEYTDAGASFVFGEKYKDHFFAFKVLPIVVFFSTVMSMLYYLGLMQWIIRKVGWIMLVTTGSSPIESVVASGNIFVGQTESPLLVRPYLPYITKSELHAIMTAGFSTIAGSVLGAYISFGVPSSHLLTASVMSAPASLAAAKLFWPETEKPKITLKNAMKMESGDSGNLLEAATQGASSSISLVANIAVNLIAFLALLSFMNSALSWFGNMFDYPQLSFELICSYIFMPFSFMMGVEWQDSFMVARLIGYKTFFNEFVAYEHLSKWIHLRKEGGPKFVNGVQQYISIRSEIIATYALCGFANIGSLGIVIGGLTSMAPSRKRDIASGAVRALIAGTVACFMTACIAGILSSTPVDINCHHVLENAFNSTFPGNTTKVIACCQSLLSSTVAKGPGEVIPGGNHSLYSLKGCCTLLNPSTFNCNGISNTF
The experiment can be described thus: two-electrode voltage-clamp of Na+ currents / total charge in Xenopus oocytes expressing hCNT3. The class given is cell-based. An excerpt:
(§1) To detect nucleoside transport by hCNTs, we turned to two-electrode voltage-clamp electrophysiological recording. Because hCNTs are Na^+-nucleoside symporters, one can measure the current generated by the Na^+ transport that is coupled with nucleoside transport. We injected Xenopus oocytes with mRNA coding for each of the hCNTs and measured inward Na^+ currents elicited by the addition of different nucleosides to the extracellular side.
(§2) The genes coding for the three hCNTs and vcCNT were cloned into a pGEM-HE vector. Plasmids were linearized using either SphI or NheI, and mRNA was transcribed using the mMESSAGE mMACHINE T7 Transcription Kit (Ambion, Grand Island, NY). Defolliculated Xenopus laevis oocytes were purchased from Ecocyte Bioscience (Austin, TX). Individual oocytes were injected with 40 ng of mRNA using a 10-μl microdispenser (Drummond Scientific, Broomall, PA) fitted with a tapered glass pipette tip and incubated at 17 °C for 4–5 days in ND96 buffer (96 mM NaCl, 2 mM KCl, 1 mM MgCl2, 1.8 mM CaCl2, and 5 mM HEPES pH 7.5) with 0.1% penicillin and streptomycin before recording.
(§3) The oocyte-recording chamber was gravity-perfused with ND96 buffer at a rate of 2 ml/min. Membrane currents were measured using an Oocyte Clamp (OC-725C; Warner Instruments, Hamden, CT). Individual oocytes were penetrated with two microelectrodes filled with 3 M KCl (0.5–1.0 MΩ). All electrophysiological experiments were conducted at room temperature. The OC-725C Oocyte Clamp was computer-interfaced via an Axon Digidata 1550 and controlled by Axoscope software (Molecular Devices, Sunnyvale, CA). The current signals were filtered at 20 Hz and sampled at intervals of 20 ms. The signals were filtered at 0.5 Hz by use of pCLAMP 10.4 software for data presentation. […] Cells were discarded if resting membrane potentials were unstable or more positive than −30 mV. Oocyte membrane potentials were clamped at −90 mV for holding potentials to measure transporter-generated currents. All data are shown as means ± SEM.
(In general: In two-electrode clamp one electrode senses voltage and the other passes current.)

Experiment [3] concerns the target T2, hCNT1 (Homo sapiens, UniProt O00337).
T2 sequence (O00337 1-649): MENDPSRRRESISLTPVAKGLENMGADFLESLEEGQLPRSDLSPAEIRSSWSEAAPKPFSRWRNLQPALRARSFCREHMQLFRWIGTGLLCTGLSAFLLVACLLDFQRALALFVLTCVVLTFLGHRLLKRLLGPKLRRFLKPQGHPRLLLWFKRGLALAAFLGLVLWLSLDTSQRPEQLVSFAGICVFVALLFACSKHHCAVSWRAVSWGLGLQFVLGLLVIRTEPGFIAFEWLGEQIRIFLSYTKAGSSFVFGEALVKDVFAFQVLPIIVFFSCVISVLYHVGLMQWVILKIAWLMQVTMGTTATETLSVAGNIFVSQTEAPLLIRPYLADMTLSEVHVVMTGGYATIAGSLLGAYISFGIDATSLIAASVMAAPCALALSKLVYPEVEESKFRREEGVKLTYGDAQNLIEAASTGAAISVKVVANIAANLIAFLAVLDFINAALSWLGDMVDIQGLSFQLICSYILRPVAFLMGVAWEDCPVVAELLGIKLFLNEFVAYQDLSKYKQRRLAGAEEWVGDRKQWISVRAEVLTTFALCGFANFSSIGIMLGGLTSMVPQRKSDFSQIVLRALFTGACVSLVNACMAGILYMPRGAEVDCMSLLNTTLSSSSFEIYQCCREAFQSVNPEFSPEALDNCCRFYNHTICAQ
The experiment can be described thus: two-electrode voltage-clamp of Na+ currents / total charge in Xenopus oocytes expressing hCNT1. Format: cell-based.
From the text: as §1, §2, §3

Values joined by “and” are separate entries in the source; they are usually repeats but may differ in a detail not shown here. Equal entries are not always repeated.

The term Kd denotes the constant that tells how readily two partners part at equilibrium.

Sequence of vcCNT (Q9KPL5 entry or part of it): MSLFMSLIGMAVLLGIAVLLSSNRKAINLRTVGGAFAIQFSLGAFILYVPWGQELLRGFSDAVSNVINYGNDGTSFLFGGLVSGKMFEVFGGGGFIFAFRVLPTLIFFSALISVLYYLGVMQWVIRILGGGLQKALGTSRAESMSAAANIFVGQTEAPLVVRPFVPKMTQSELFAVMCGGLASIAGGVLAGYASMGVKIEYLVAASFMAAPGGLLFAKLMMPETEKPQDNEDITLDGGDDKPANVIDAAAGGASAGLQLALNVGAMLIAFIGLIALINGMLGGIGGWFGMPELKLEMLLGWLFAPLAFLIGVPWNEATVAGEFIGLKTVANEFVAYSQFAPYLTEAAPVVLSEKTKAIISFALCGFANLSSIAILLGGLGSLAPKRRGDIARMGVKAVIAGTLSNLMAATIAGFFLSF

As for `Cc1cc2cn([C@@H]3O[C@H](CO)[C@@H](O)C3(F)F)c(=O)nc2[nH]1` [pyrrolo-gemcitabine], the mAnisotropy in experiment [1] ([vcCNT] 0 μM) is 44.1 and 33.7 and 35.1; in experiment [1] ([vcCNT] 1.0 μM), 45.4 and 36.3 and 43.5; in experiment [1] ([vcCNT] 2.5 μM), 55.8 and 48.4 and 48.8; in experiment [1] ([vcCNT] 5.0 μM) it was 72.7 and 68.7 and 59.5; in experiment [1] ([vcCNT] 10 μM) it was 92.3 and 80.0 and 79.5; in experiment [1] ([vcCNT] 25 μM), 127.1 and 118.0 and 110.9. Besides, the mAnisotropy in experiment [1] ([vcCNT] 50 μM) was 153.7 and 139.6 and 136.3; in experiment [1] ([vcCNT] 100 μM), 173.8 and 165.0; in experiment [1] ([vcCNT] 200 μM), 187.8 and 174.6. In addition, in experiment [1] (direct titration of fluorescent nucleoside with vcCNT, single-site model, mean ± SEM, read-out: KD), the Kd was 24 µM and 23.5 µM. Moreover, in experiment [1] (vcCNT), the “decrease of KD relative to gemcitabine” value was around 60 fold. Further, the “Total charge transported, Mean” value in experiment [2] (200 μM nucleoside, hCNT3-expressing Xenopus oocytes, mean of Exp. 1-14) amounted to 0.082 μC; in experiment [3] (200 μM nucleoside, hCNT1-expressing Xenopus oocytes, mean of Exp. 1-11), 0.823 μC. Moreover, the “Na+ current on addition of nucleoside” value in experiment [2] (hCNT3-expressing oocytes, 200 μM) was “almost no effect”. Besides, in experiment [2] (ratio of total charge, 200 μM each, hCNT3, mean of Exp. 1-14), the “Qgem/Qpyr-gem, Mean” value is listed as 96.071. For the same molecule, the “total charge uptake higher than gemcitabine” value in experiment [3] (fold, hCNT1 oocytes, 200 μM) is recorded as “sevenfold”. Also, in experiment [3] (ratio of total charge, 200 μM each, hCNT1, mean of Exp. 1-11), the “Qpyr-gem/Qgem, Mean” value is on record as 6.829.
